Here are results for 5 compounds from US20190014793A1, “METHOD OF PROVIDING NUTRITION TO INFANTS” (ABBOTT LABORATORIES, priority 2011, published 2019).

For data set [1] the following is noted: Merck Index, 11th Ed.; cited from earlier work.
A short description of data set [2]: Amino acid solubility considerations (estimated concentration v. solubility limit). In kind it is physicochemical. Conditions: % of solubility limit at 25° C.

Regarding `CC(C)C[C@H](N)C(=O)O` [Leu, Leucine], the “Solubility limit of free amino acid, 25° C.” value in data set [1] is 24.26 mg/mL. In data set [2], the “Sterile liquid protein concentration, % of limit” value is 67%.

Regarding `CC[C@H](C)[C@H](N)C(=O)O` [Ile, Isoleucine], in data set [1], the “Solubility limit of free amino acid, 25° C.” value is 41.2 mg/mL. For the same compound, the “Sterile liquid protein concentration, % of limit” value in data set [2] was 22%.

Consider `N[C@@H](Cc1ccccc1)C(=O)O` [Phe, L-phenylalanine], for which the “Solubility limit of free amino acid, 25° C.” value in data set [1] is 29.6 mg/mL. In addition, the “Sterile liquid protein concentration, % of limit” value in data set [2] is given as 27%.

Regarding `CC(C)[C@H](N)C(=O)O` [Val, Valine], the “Solubility limit of free amino acid, 25° C.” value in data set [1] was 88.5 mg/mL. Further, in data set [2], the “Sterile liquid protein concentration, % of limit” value is reported as 13%.

On to `N[C@@H](Cc1ccc(O)cc1)C(=O)O` [Tyr, L-tyrosine], for which the “Sterile liquid protein concentration, % of limit” value in data set [2] is 400%.
